Our source for the half-life values is ChEMBL document CHEMBL1135314, “Synthesis of tag introducible (3-trifluoromethyl)phenyldiazirine based photoreactive phenylalanine” (Bioorg Med Chem Lett, 2002).

SMILES strings stand for the structures.

A short description of the data set: Half life of compound was determined. The format is ADME.

Molecule `N[C@@H](Cc1ccc(C2(C(F)(F)F)N=N2)cc1OCCNC(=O)CCCC[C@@H]1SC[C@@H]2NC(=O)N[C@@H]21)C(=O)O` yielded a half-life of 2.6 min.

`N[C@@H](Cc1ccc(C2(C(F)(F)F)N=N2)cc1OCCOCCOCCNC(=O)CCCC[C@@H]1SC[C@@H]2NC(=O)N[C@@H]21)C(=O)O`: the half-life amounted to 2.3 min.
